In patent EP0866709B1, “1,2,4-BENZOTRIAZINE OXIDES FORMULATIONS” (priority 1995, dated 1997):
Values after ≈ are worked out from the molar mass of the structure shown. Read-outs that look alike come from different tables or passages of the source.

Tests used:
hypoxic cells [1] = conditions: Human; in vitro; drug concentration required under aerobic vs. hypoxic conditions for equivalent cell killing; cited from earlier work
hypoxic cells [2] = conditions: cited from earlier work
[3] = type: physicochemical
Text: […]. The planar nature of the molecule would facilitate an ordered stacking with the crystal with intermolecular attractions (charge transfer interactions) between each plane via the nitrogen and oxygen of the N-oxide functions. A hydrated form of tirapazamine can exist where water molecules are hydrogen bonded to the oxygen components.

[4] = Degradation on refluxing in 0.1 N sodium hydroxide; type: physicochemical
dog = experiment: Single and 2-week and 2-month multiple-dose studies; type: in vivo; conditions: each regimen (single, 2-week, 2-month multiple-dose)
Protocol: (§1) Single and 2-week and 2-month multiple-dose studies were performed in the rat and the dog.

rat = experiment: as above; type: in vivo; conditions: each regimen (single, 2-week, 2-month multiple-dose)
Protocol: as §1

mouse tumor models = experiment: Tirapazamine with radiation in vivo
mouse SCCVII tumors = experiment: Tirapazamine with fractionated radiation in vivo; conditions: multiple 0.08 mmol/kg (43 mg/m^2) doses given prior to each radiation fraction (2.5 Gy x 8)
[5] = phosphate buffer at pH 7.4; cited from earlier work
[6] = Solubility of tirapazamine in water and various vehicles; type: physicochemical
mouse tumors = experiment: Tirapazamine alone in vivo, tumor cell kill; design: species or system mice; conditions: given without radiation; typical
Text: (§2) . When given alone in vivo in mice, tirapazamine-in single doses-would be expected to produce a relatively small cell kill corresponding to the percentage of tumor cells which are hypoxic. A number of experiments have shown this to be the case, with cell kills typically less than one log (surviving fraction ≥ 1•10^-1). For example, the maximum cell kill observed following a single does was in the SCCVII tumor (surviving fraction = 5•10^-1), and only a small tumor growth delay of 3 days was produced in the FSaIIC fibrosarcoma.
[…]. However, the lowest surviving fraction seen in four different mouse tumors was 5•10^-1, and down to 5•10^-2 in a fifth mouse tumor (RIF-1 tumor).

HT 1080 = experiment: In vitro cytotoxicity under aerobic or hypoxic conditions; type: cell-based; conditions: Homo sapiens; HT 1080 (tumor); 1-hour incubation under hypoxic conditions
CHO-HA-1 = experiment: as above; type: cell-based, Hamster; conditions: CHO-HA-1 (normal); 1-hour incubation under hypoxic conditions
in vivo = conditions: mouse
[7] = Stress stability on storage at 50°C and 70°C after a single autoclave cycle; type: physicochemical
Protocol: Formulations were also stressed by storing at elevated temperatures of 50°C and 70°C after a single autoclave cycle of 21 minutes at 121°C. […] This instability was not apparent from multiple autoclave stressing.
The clinical formulation used in chemical studies discussed later was as follows: […]

A549 = experiment: In vitro cytotoxicity under aerobic or hypoxic conditions; type: cell-based; conditions: Homo sapiens; A549 (tumor); 1-hour incubation under hypoxic conditions
[8] = system: FSaIIC Murine Fibrosarcoma; conditions: administered just before single-dose treatment with cyclophosphamide, carmustine or melphalan; cited from earlier work
FSaIIC fibrosarcoma [9] = experiment: Tirapazamine with chemotherapy in vivo; design: species or system mice; conditions: tirapazamine 50 mg/kg IP added to cyclophosphamide (150 mg/kg IP), melphalan (10 mg/kg IP), or cisplatin (10 mg/kg IP)
FSaIIC fibrosarcoma [10] = experiment: Tirapazamine alone in vivo; design: species or system mice
Text: as §2, with “When” for “. When”

RIF-1 = experiment: In vitro cytotoxicity under aerobic or hypoxic conditions; type: cell-based; conditions: Mus musculus; RIF-1 (tumor); 1-hour incubation under hypoxic conditions
SCCVII = experiment: as above; type: cell-based; conditions: Mus musculus; SCCVII (tumor); 1-hour incubation under hypoxic conditions
[11] = Stress stability study, multiple autoclave cycles of 21 minutes at 121°C; type: physicochemical
Protocol: Stress studies were conducted using multiple autoclave cycles of 21 minutes at 121°C. […] A shift in the normal saline formulation pH occurred after eight autoclave cycles from 4.5 to 4.9, therefore formulations required some degree of buffering.

HCT-8 = experiment: In vitro cytotoxicity under aerobic or hypoxic conditions; type: cell-based; conditions: Homo sapiens; HCT-8 (tumor); 1-hour incubation under hypoxic conditions
AG 1522 = experiment: as above; type: cell-based; conditions: Homo sapiens; AG 1522 (normal); 1-hour incubation under hypoxic conditions
[12] = Rodent, in vitro, drug concentration required under aerobic vs. hypoxic conditions for equivalent cell killing

Which “Hypoxic Cytotoxicity Ratio” value (hypoxic cells [1]) does the source give for `COCC(O)Cn1ccnc1[N+](=O)[O-]` (centres unmarked) [Misonidazole] here?
Its value is 15.

And the “Hypoxic Cytotoxicity Ratio” value (hypoxic cells [2]; [12])?
Its value is 10-15.

With `CN(C)CCCNc1c2ccccc2nc2cccc([N+](=O)[O-])c12` [Nitracrine] as the compound, how does the “Hypoxic Cytotoxicity Ratio” value (hypoxic cells [2]) read?
Its value is 7.

For `CO[C@@]12[C@H](COC(N)=O)C3=C(C(=O)C(C)=C(N)C3=O)N1C[C@H]1[C@@H]2N1C` (some centres unmarked) [Porfiromycin], which “Hypoxic Cytotoxicity Ratio” value (hypoxic cells [1]) is on record?
Its value is about 10.

What about the “Hypoxic Cytotoxicity Ratio” value (hypoxic cells [2]; [12]) of the same compound?
The value was 5-10.

With `Nc1n[n+]([O-])c2ccccc2[n+]1[O-]` [Tirapazamine, 1,2,4-benzotriazine-3-amine 1,4-dioxide] as the compound, how does the “partition coefficient (octanol/water)” value [3] read?
Its value is 0.15.

What about the Degradation [4] of the same compound?
The Degradation was “complete degradation occurs after refluxing for less than four hours”.

What about the “Clinical signs and symptoms” value (dog) of the same compound?
Its value is “salivation, decreases in white blood cell measurements (including lymphocyte count in the dog), and decreases in red blood cell measurements”.

What about the “Clinical signs and symptoms” value (rat) of the same compound?
Its value is “salivation, decreases in white blood cell measurements (including lymphocyte count in the dog), and decreases in red blood cell measurements”.

What about the “antitumor effect of tirapazamine plus radiation versus additive effect” value (mouse tumor models; one study) of the same compound?
The value was “exceeds the additive effect of these two treatments”.

What about the “enhancement of the antitumor activity of radiation, compared with etanidazole” value (mouse tumor models; one study) of the same compound?
Its value is “to a greater extent than did the hypoxic cell sensitizer etanidazole”.

And the “effectiveness with fractionated radiation” value (mouse tumor models; single 0.30 mmol/kg (160mg/m^2) dose versus multiple 0.08 mmol/kg (43 mg/m^2) doses, fractionated radiation (2.5 Gy x 8))?
The value was “equally effective”.

What about the “effectiveness with single-dose radiation” value (mouse tumor models; single 0.30 mmol/kg (160mg/m^2) dose with a single large (20 Gy) dose of radiation) of the same compound?
Its value is “effective”.

What about the “antitumor activity of radiation (cell killing or tumor growth delay)” value (mouse tumor models; tumors FSaIIC, SCCVII, RIF-1, EMT6, and KHT, single- or multiple-dose schedule, single-dose or fractionated radiation) of the same compound?
Its value is “augments the antitumor activity of radiation”.

And the cures (mouse SCCVII tumors)?
Its cures is “several cures”.

What about the Stability [5] of the same compound?
Its Stability is “stable”.

And the solubility ([6]; 1% benzyl alcohol : 10% ethanol : 89% water, v/v, 15 °C, aqueous with cosolvent or surfactant or cyclodextrin, 1% Benzyl alcohol: 10% ethanol:89% water, v/v, 15°C)?
Its solubility is 1230 µg/mL (≈ 6.9 mM).

What about the solubility ([6]; Albumin 4.5% w/v, 20 °C, plasma or biological fluid) of the same compound?
The solubility was 1330 µg/mL (≈ 7.47 mM).

And the solubility ([6]; Albumin 20% w/v, 20 °C, plasma or biological fluid)?
The solubility was 1710 µg/mL (≈ 9.6 mM).

And the solubility ([6]; Dimethylformamide 25% v/v in water, 15 °C, aqueous with cosolvent or surfactant or cyclodextrin)?
The solubility was 1830 µg/mL (≈ 10.3 mM).

And the solubility ([6]; Ethanol 10% v/v in water, 15 °C, aqueous with cosolvent or surfactant or cyclodextrin)?
Its solubility is 930 µg/mL (≈ 5.22 mM).

What about the solubility ([6]; Ethanol 50% v/v in water, 15 °C, aqueous with cosolvent or surfactant or cyclodextrin) of the same compound?
Its solubility is 2320 µg/mL (≈ 13 mM).

And the solubility ([6]; Ethanol 65% v/v in water, 15 °C, aqueous with cosolvent or surfactant or cyclodextrin)?
Its solubility is 2840 µg/mL (≈ 15.9 mM).

What about the solubility ([6]; Ethanol 85% v/v in water, 15 °C, aqueous with cosolvent or surfactant or cyclodextrin) of the same compound?
Its solubility is 1710 µg/mL (≈ 9.6 mM).

What about the solubility ([6]; Ethanol, 15 °C, organic solvent or mixture) of the same compound?
The solubility was 470 µg/mL (≈ 2.64 mM).

And the solubility ([6]; Glycerol 50% v/v in water, 15 °C, aqueous with cosolvent or surfactant or cyclodextrin)?
The solubility was 2930 µg/mL (≈ 16.4 mM).

And the solubility ([6]; Glycerol, 15 °C, organic solvent or mixture)?
The solubility was 4590 µg/mL (≈ 25.8 mM).

What about the solubility ([6]; Normal Saline, 15 °C, saline or isotonic) of the same compound?
The solubility was 850 µg/mL (≈ 4.77 mM).

And the solubility ([6]; PEG 400 50% v/v in water, 15 °C, aqueous with cosolvent or surfactant or cyclodextrin)?
Its solubility is 1600 µg/mL (≈ 8.98 mM).

And the solubility ([6]; PEG 400, 15 °C, organic solvent or mixture)?
Its solubility is 5120 µg/mL (≈ 28.7 mM).

What about the solubility ([6]; Pluronic F68 20% w/v, 15 °C, aqueous with cosolvent or surfactant or cyclodextrin) of the same compound?
The solubility was 1080 µg/mL (≈ 6.06 mM).

And the solubility ([6]; Povidone (Kollidon 12PF) 10% w/v, 15 °C, aqueous with cosolvent or surfactant or cyclodextrin)?
The solubility was 950 µg/mL (≈ 5.33 mM).

What about the solubility ([6]; Propylene glycol 50% v/v in water, 15 °C, aqueous with cosolvent or surfactant or cyclodextrin) of the same compound?
The solubility was 2580 µg/mL (≈ 14.5 mM).

What about the solubility ([6]; Propylene glycol, 15 °C, organic solvent or mixture) of the same compound?
The solubility was 3270 µg/mL (≈ 18.4 mM).

What about the solubility ([6]; Tween 80 0.2% w/v, 15 °C, aqueous with cosolvent or surfactant or cyclodextrin) of the same compound?
Its solubility is 900 µg/mL (≈ 5.05 mM).

And the solubility ([6]; Tween 80 20% w/v, 15 °C, aqueous with cosolvent or surfactant or cyclodextrin)?
Its solubility is 1020 µg/mL (≈ 5.73 mM).

And the solubility ([6]; Water for Injections, 15 °C, water)?
The solubility was 850 µg/mL (≈ 4.77 mM).

And the solubility ([6]; Water for Injections, 20 °C, water)?
Its solubility is 1430 µg/mL (≈ 8.03 mM).

And the solubility ([6]; citrate buffer 0.05 M pH 4 (isotonic), 15 °C, pH 4, aqueous buffer)?
The solubility was 810 µg/mL (≈ 4.55 mM).

What about the solubility ([6]; lactate buffer 0.1 M pH 4 (isotonic), 15 °C, pH 4, aqueous buffer, Lactate buffer O.1M pH 4 (isotonic)) of the same compound?
Its solubility is 900 µg/mL (≈ 5.05 mM).

And the solubility ([6]; water, in water (text, temperature not given))?
Its solubility is about 810 µg/mL (≈ 4.55 mM).

What about the cell kill (mouse tumors) of the same compound?
Its cell kill is “less than 1 log”.

And the IC50 (HT 1080)?
The IC50 was 22 µM.

What about the IC50 (CHO-HA-1) of the same compound?
Its IC50 is 5 µM.

And the LD50 (in vivo)?
Its LD50 is 101 mg/kg.

And the Stability ([7]; 0.7 mg/ml in 0.005M citrate buffer pH 4.0, 2 months at 50°C)?
Its Stability is “stable”.

What about the Stability ([7]; 0.7 mg/ml in 0.05M citrate buffer pH 4.0, 2 months at 50°C) of the same compound?
The Stability was “stable”.

What about the Stability ([7]; 0.7 mg/ml in 0.05M citrate buffer pH 4.0, at 70°C) of the same compound?
The Stability was “evidence of instability”.

And the Stability ([7]; 0.05M citrate pH 4, compared with the other formulations stressed)?
The Stability was “most stable formulation”.

And the Stability ([7]; lactate buffer, storage at 70°C after a single autoclave cycle)?
The Stability was “unstable”.

And the IC50 (A549)?
The IC50 was 15 µM.

And the “dose enhancement of alkylating agents” value [8]?
Its value is “marked dose enhancement leading to synergistic cytotoxic effects on tumor cells”.

What about the “increases in tumor growth delay” value (FSaIIC fibrosarcoma [9]) of the same compound?
The value was 1.6- to 5.3 fold.

What about the “direct tumor cell killing” value (FSaIIC fibrosarcoma [10]; 25 to 75 mg/kg IP, mice bearing the FSaIIC fibrosarcoma) of the same compound?
The value was “some direct tumor cell killing was observed”.

What about the tumor growth delay (FSaIIC fibrosarcoma [10]; alone, single dose, FSaIIC fibrosarcoma) of the same compound?
The tumor growth delay was 3 days.

What about the IC50 (RIF-1) of the same compound?
The IC50 was 3 µM.

What about the IC50 (SCCVII) of the same compound?
Its IC50 is 4 µM.

What about the Stability ([11]; acidic solutions of normal saline or solutions buffered to pH 4 using 0.05M citrate or 0.1 M lactate buffer) of the same compound?
The Stability was “more stable”.

What about the Stability ([11]; citrate buffer at pH 6) of the same compound?
The Stability was “unstable”.

What about the Stability ([11]; phosphate buffer at pH 5.9) of the same compound?
Its Stability is “unstable”.

What about the IC50 (HCT-8) of the same compound?
Its IC50 is 10 µM.

And the IC50 (AG 1522)?
The IC50 was 13 µM.
